Source: ChEMBL document CHEMBL1201862, “PubChem BioAssay data set” (2004)
The source made the active and inactive calls.

Columns and labels:
[1] = molecular target: T1, Ubiquitin-conjugating enzyme E2 N (Homo sapiens, UniProt P61088); type: functional;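 further: Dose-response confirmation in a TR-FRET assay detecting UBC13-driven polyubiquitin chain formation, inhibition measured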
T1 sequence (P61088 whole entry): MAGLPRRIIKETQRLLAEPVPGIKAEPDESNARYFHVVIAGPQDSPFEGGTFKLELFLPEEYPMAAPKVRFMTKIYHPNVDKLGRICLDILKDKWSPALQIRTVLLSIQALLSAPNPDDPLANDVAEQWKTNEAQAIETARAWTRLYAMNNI

[2] = molecular target: Paired box protein Pax-8 (Homo sapiens, UniProt Q06710); assay: PAX8 transcriptional activity inhibition in RMG-I – RMG-I cells, luciferase, cherry-pick, dose response (AID 687027); type: functional, cell-based;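 further: luciferase reporter driven by Pax8 target thyroperoxidase promoter measured by SteadyGlo luminescence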
Sequence of Paired box protein Pax-8 (Q06710 whole entry): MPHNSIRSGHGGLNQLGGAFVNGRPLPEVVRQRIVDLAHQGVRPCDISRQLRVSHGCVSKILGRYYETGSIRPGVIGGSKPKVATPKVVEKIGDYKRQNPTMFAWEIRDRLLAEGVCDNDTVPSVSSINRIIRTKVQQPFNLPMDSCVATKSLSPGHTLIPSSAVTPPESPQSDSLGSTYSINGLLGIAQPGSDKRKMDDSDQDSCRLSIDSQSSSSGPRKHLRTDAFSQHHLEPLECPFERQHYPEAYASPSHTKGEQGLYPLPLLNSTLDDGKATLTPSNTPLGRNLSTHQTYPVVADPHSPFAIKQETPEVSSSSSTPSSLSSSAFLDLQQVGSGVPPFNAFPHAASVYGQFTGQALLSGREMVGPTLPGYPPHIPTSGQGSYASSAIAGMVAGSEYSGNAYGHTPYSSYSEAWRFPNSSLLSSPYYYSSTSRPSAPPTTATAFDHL

[3] = molecular target: T2, Hexokinase HKDC1 (Homo sapiens, UniProt Q2TB90); assay: inhibition of HKDC1 glucose phosphorylation – biochemical, W721R variant, dose response (AID 504729); type: functional
T2 sequence (Q2TB90 whole entry): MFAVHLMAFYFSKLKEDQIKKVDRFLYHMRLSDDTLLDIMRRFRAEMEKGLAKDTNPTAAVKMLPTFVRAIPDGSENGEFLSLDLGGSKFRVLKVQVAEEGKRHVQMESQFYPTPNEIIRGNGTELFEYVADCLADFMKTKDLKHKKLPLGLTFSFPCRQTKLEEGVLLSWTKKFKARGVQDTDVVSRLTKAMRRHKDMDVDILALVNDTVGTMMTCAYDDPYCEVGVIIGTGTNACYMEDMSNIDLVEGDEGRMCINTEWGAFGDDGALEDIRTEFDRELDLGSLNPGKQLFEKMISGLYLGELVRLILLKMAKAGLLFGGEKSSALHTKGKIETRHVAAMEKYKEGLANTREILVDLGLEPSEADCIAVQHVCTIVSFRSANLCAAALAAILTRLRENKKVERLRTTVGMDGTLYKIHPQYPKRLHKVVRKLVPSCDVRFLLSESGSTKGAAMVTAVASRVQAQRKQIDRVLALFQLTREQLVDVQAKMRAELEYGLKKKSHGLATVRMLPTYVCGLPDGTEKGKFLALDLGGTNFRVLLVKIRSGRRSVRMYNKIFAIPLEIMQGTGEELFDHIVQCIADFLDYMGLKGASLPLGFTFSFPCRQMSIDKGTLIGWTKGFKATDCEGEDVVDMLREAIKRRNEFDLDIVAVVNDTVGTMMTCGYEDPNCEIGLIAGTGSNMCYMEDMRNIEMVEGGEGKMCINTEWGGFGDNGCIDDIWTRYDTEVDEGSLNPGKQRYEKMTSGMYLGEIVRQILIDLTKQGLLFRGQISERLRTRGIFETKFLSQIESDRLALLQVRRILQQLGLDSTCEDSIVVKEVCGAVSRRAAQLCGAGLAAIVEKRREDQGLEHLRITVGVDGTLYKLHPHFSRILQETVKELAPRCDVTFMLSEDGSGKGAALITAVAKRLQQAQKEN

[4] = system: Streptococcus sp. 'group A'; assay: Streptococcus pyogenes SK(-)GAS viability under kanamycin – luminescence, BacTiterGlo, confirmation, counter-screen for streptokinase expression inhibitor project, dose response (AID 1900); type: functional, organism-based
[5] = molecular target: Heat shock protein HSP 90-alpha (Homo sapiens, UniProt P07900); assay: Luminescence-based dose response biochemical high throughput screening assay for inhibitors of the Heat Shock Protein 90 (HSP90). [Related pubchem assays: 1831 (Summary AID.), 1846 (Confirmation screen.), 1789 (Primary screen.)]
[6] = molecular target: T3, Histone-lysine N-methyltransferase NSD2 (Homo sapiens, UniProt O96028); type: biochemical
T3 sequence (O96028 whole entry): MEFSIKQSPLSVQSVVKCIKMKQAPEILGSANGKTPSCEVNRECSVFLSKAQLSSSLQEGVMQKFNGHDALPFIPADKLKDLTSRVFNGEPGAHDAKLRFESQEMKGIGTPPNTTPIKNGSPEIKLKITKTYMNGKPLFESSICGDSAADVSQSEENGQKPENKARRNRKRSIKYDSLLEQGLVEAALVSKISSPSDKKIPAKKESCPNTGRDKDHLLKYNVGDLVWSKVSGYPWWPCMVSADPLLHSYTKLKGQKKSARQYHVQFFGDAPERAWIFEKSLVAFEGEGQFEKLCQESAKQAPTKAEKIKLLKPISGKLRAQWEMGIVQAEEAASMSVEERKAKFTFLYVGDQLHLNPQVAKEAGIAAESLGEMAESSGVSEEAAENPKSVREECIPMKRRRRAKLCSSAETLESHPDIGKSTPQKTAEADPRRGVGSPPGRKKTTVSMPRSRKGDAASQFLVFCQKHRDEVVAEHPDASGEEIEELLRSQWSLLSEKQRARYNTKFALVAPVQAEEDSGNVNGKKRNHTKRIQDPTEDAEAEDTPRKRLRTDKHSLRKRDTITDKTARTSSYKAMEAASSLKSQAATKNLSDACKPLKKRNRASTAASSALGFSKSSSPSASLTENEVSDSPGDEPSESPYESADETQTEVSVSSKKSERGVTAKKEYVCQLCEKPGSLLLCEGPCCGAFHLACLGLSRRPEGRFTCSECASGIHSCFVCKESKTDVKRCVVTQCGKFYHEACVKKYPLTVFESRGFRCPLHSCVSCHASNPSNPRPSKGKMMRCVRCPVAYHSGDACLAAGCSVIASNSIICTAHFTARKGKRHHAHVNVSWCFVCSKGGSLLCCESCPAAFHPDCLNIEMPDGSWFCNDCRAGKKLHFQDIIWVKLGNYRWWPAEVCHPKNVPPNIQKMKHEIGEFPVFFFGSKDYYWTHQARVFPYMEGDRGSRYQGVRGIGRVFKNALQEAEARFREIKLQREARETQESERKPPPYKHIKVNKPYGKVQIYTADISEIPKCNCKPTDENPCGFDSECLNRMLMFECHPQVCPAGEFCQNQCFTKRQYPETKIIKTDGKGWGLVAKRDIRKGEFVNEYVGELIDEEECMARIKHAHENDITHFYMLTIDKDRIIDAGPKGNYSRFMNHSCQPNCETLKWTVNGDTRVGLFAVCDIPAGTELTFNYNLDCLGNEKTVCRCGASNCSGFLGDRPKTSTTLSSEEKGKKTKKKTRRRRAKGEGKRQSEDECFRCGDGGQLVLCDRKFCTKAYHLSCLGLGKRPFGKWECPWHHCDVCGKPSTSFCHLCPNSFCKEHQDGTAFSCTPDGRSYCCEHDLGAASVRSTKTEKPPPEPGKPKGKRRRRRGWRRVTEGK

[7] = Intein inhibitors as potential Tuberculosis drugs, a cytotoxicity screen. [Related pubchem assays (depositor defined):AID2221, AID2223, AID434968, AID435010, AID449749, AID449750, AID489010]; type: functional
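Wherever CC50 is given: cells exposed to compound for 72 hours before luminescence readout.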

CCCCCCCCCCOC(=O)Cn1c(COc2cccc(OC)c2)[n+](C)c2ccccc21
IC50 [1]: > 20 µM (inactive)

COc1cc(OC)c(NC2=CC(=O)C(=O)c3ccccc32)cc1Cl
AC50 [2]: 3.4 µM (active)

CCc1ccc(S(=O)(=O)/N=C2\C=C(Nc3cccc(C(=O)O)c3)C(=O)c3ccccc32)cc1
IC50 [3]: 4.78 µM (active)
EC50 [4]: 1.26 µM (active)
IC50 [5]: 0.926 µM (active)
AC50 [6]: 0.263 µM (active)

COc1cc2c(cc1OC)-c1c(OC)c(OC)cc3c1C(C2)N(C)CC3 (configuration not stated)
CC50 [7]: > 40 µM (active)
